This note sets out measurements from USRE47689E1, “Compounds for treating spinal muscular atrophy” (PTC Therapeutics, Inc., priority 2011, dated 2019).

In one series the test system is Smn protein. Nature of the series: Smn protein assay in cultured cells (SMN HTRF). It is filed as cell-based, human. As to conditions: 48 hours; for EC1.5x (concentration giving 1.5-fold Smn protein increase): SMA Type 1 patient fibroblast cells (GM03813), 7-point concentration curve, SMN HTRF, concentration producing 1.5 times Smn protein vs DMSO vehicle control, read-out: EC1.5x for Smn protein expression; for maximum fold (Fold) increase of Smn protein: SMA patient fibroblast cells, 7-point concentration data, fold increase relative to vehicle control (SMN HTRF). The essentials:
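Smn in SMA fibroblast lysates, measured by anti-SMN HTRF after 48 h compound exposure; EC1.5x from fold change over vehicle.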

Series [1] relates to SMN2 minigene (full length SMN2 minigene mRNA containing SMN2 exon 7). As to the kind of experiment: SMN2 minigene mRNA splicing RT-qPCR assay in cultured cells. It is filed as cell-based, human. As to conditions: Homo sapiens, HEK293-H, read-out: EC1.5x for production of full length SMN2 mRNA. In short, it runs like this: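 Full-length SMN2 minigene mRNA (exon 7 included), minigene-specific and not endogenous SMN, quantified by RT-qPCR multiplexed with GAPDH in stably transfected HEK293H cells after 24 h compound exposure at 37° C. Abundance from efficiency-corrected Ct, normalized to GAPDH and vehicle; EC1.5x reported as star bins.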

Where [2] appears, read: HEK293H cells stably transfected with SMN2-A minigene, 24 hours, 7-point concentration curve, 1.5-fold relative to vehicle-treated cells.

Like-named read-outs stand apart in the source and are kept apart here.

`C[C@@H]1CN(c2ccc3cc(-c4cn5cccc(F)c5n4)c(=O)oc3c2)C[C@H](C)N1` [Compound 338, 7-[(3R,5S)-3,5-dimethylpiperazin-1-yl]-3-(8-fluoroimidazo[1,2-a]pyridin-2-yl)-2H-chromen-2-one] yielded a melting point of 176 to 180 °C. In the series on Smn protein, the EC1.5x (concentration giving 1.5-fold Smn protein increase) was in the range of 3000 to 10000 nM; the “maximum fold (Fold) increase of Smn protein” value (“maximum fold (Fold) increase” below) is “** (fold increase between >1.2 and ≤1.35)”. The EC (1.5-fold) in series [1] (setting [2]) lay in the range of 0.1 to 0.3 µM.

With `Cc1cn2cc(-c3cc4ccc(N5CCN(C6COC6)CC5)cc4oc3=O)nc2cn1` [Compound 839, 3-(6-methylimidazo[1,2-a]pyrazin-2-yl)-7-[4-(oxetan-3-yl)piperazin-1-yl]-2H-chromen-2-one], the melting point fell in the range of 273 to 276 °C. Moreover, in the series on Smn protein, the EC1.5x (concentration giving 1.5-fold Smn protein increase) is 300 to 1000 nM; the “maximum fold (Fold) increase” value was “**** (fold increase between >1.5 and ≤1.65)”. Also, the EC (1.5-fold) in series [1] (setting [2]) lay within 0.1 to 0.3 µM.

For the molecule `CCc1cn2cc(-c3cc4ccc(N5CCCN(C)CC5)cc4oc3=O)nc2s1` [Compound 431, 3-(2-ethylimidazo[2,1-b][1,3]thiazol-6-yl)-7-(4-methyl-1,4-diazepan-1-yl)-2H-chromen-2-one], the melting point was 188 to 191 °C. Moreover, the “maximum fold (Fold) increase” value with Smn protein is “* (maximum fold increase of ≤1.2)”. For the same molecule, in series [1] (setting [2]), the EC (1.5-fold) fell in the range of 1 to 3 µM.

The molecule `C[C@@H]1CN(c2ccc3cc(-c4cn5cccnc5n4)c(=O)oc3c2)C[C@H](C)N1` [Compound 107, 7-[(3R,5S)-3,5-dimethylpiperazin-1-yl]-3-(imidazo[1,2-a]pyrimidin-2-yl)-2H-chromen-2-one] displayed a melting point of 256 to 258 °C. Further, in the series on Smn protein, the EC1.5x (concentration giving 1.5-fold Smn protein increase) was 300 to 1000 nM; the “maximum fold (Fold) increase” value was “**** (fold increase between >1.5 and ≤1.65)”. For the same molecule, the EC (1.5-fold) in series [1] (setting [2]) was in the range of 0.1 to 0.3 µM.

In turn, `COc1ccc(-c2cc3ccc(N4C[C@@H](C)N[C@@H](C)C4)cc3oc2=O)cc1C` [Compound 543, 7-[(3R,5S)-3,5-dimethylpiperazin-1-yl]-3-(4-methoxy-3-methylphenyl)-2H-chromen-2-one] showed a melting point of 111 to 113 °C. Further, in the series with Smn protein, the “maximum fold (Fold) increase” value is listed as “* (maximum fold increase of ≤1.2)”. Also, the EC (1.5-fold) in series [1] (setting [2]) was 1 to 3 µM.

As to `Cc1cnc2nc(-c3cc4ccc(N5CCN[C@H](C)C5)cc4oc3=O)cn2c1` [Compound 463, 3-(6-methylimidazo[1,2-a]pyrimidin-2-yl)-7-[(3R)-3-methylpiperazin-1-yl]-2H-chromen-2-one], the melting point was in the range of 258 to 261 °C. The “maximum fold (Fold) increase” value in the series with Smn protein is reported as “* (maximum fold increase of ≤1.2)”. The EC (1.5-fold) in series [1] (setting [2]) was in the range of 0.1 to 0.3 µM.

As to `C[C@@H]1CN(c2ccc3cc(-c4cn5cccc(Cl)c5n4)c(=O)oc3c2)C[C@H](C)N1C` [Compound 137, 3-(8-chloroimidazo[1,2-a]pyridin-2-yl)-7-[(3R,5S)-3,4,5-trimethylpiperazin-1-yl]-2H-chromen-2-one], the melting point was 244 to 247 °C. The “maximum fold (Fold) increase” value in the series on Smn protein was “*** (fold increase between >1.35 and ≤1.5)”. The EC (1.5-fold) in series [1] (setting [2]) lay within 1 to 3 µM.

`Cc1cn2cc(-c3cc4ccc(N5CC6CC5CN6)cc4oc3=O)cc2c(C)n1` (centres unmarked) [Compound 783, 7-(2,5-diazabicyclo[2.2.1]hept-2-yl)-3-(1,3-dimethylpyrrolo[1,2-a]pyrazin-7-yl)-2H-chromen-2-one] came in with a melting point of 236 to 239 °C. Also, the “maximum fold (Fold) increase” value in the series with Smn protein was “*** (fold increase between >1.35 and ≤1.5)”. The EC (1.5-fold) in series [1] (setting [2]) was less than 0.1 µM.

For the molecule `COc1cccc(-c2cc3ccc(N4CCN[C@@H](C)C4)cc3oc2=O)n1` [Compound 362, 3-(6-methoxypyridin-2-yl)-7-[(3S)-3-methylpiperazin-1-yl]-2H-chromen-2-one], the melting point fell in the range of 155 to 157 °C. Also, in the series on Smn protein, the “maximum fold (Fold) increase” value was “** (fold increase between >1.2 and ≤1.35)”. Besides, the EC (1.5-fold) in series [1] (setting [2]) is 0.3 to 1 µM.

Turning to `CN1CCN(c2ccc3cc(-c4cn5cc(C#N)ccc5n4)c(=O)oc3c2)CC1` [Compound 208, 2-[7-(4-methylpiperazin-1-yl)-2-oxo-2H-chromen-3-yl]imidazo[1,2-a]pyridine-6-carbonitrile], the melting point was 291 °C (dec.). Moreover, the “maximum fold (Fold) increase” value in the series on Smn protein is listed as “* (maximum fold increase of ≤1.2)”. Besides, the EC (1.5-fold) in series [1] (setting [2]) was 1 to 3 µM.

Molecule `O=c1oc2cc(N3CCN4CCCCC4C3)ccc2cc1-c1cn2cccc(F)c2n1` (centres unmarked) [Compound 578, 3-(8-fluoroimidazo[1,2-a]pyridin-2-yl)-7-(octahydro-2H-pyrido[1,2-a]pyrazin-2-yl)-2H-chromen-2-one] had a melting point of 230 to 233 °C. In the series on Smn protein, the “maximum fold (Fold) increase” value is “* (maximum fold increase of ≤1.2)”. For the same molecule, the EC (1.5-fold) in series [1] (setting [2]) fell in the range of 1 to 3 µM.

In turn, `Cc1cn2cc(-c3cc4ccc(N5C[C@H](O)[C@@H](N6CCCC6)C5)cc4oc3=O)nc2c(C)n1` [Compound 739, 3-(6,8-dimethylimidazo[1,2-a]pyrazin-2-yl)-7-[(3′S,4′S)-4′-hydroxy-1,3′-bipyrrolidin-1′-yl]-2H-chromen-2-one] had a melting point of 273 to 275 °C. In the series on Smn protein, the EC1.5x (concentration giving 1.5-fold Smn protein increase) is less than 300 nM; the “maximum fold (Fold) increase” value was “**** (fold increase between >1.5 and ≤1.65)”. For the same molecule, in series [1] (setting [2]), the EC (1.5-fold) was less than 0.1 µM.

Molecule `O=c1oc2cc(N3CCNCC3)ccc2cc1-c1cccc(F)c1` [Compound 26, 3-(3-fluorophenyl)-7-(piperazin-1-yl)-2H-chromen-2-one] came in with a melting point of 148 to 150 °C. In the series on Smn protein, the “maximum fold (Fold) increase” value is “* (maximum fold increase of ≤1.2)”. Also, in series [1] (24 h), the EC (1.5-fold) was 1 to 3 µM.

On to `C[C@@H]1CN(c2ccc3cc(-c4cnc5ccccc5n4)c(=O)oc3c2)C[C@H](C)N1` [Compound 461, 7-[(3R,5S)-3,5-dimethylpiperazin-1-yl]-3-(quinoxalin-2-yl)-2H-chromen-2-one], for which the melting point lay in the range of 234 to 236 °C. In addition, the “maximum fold (Fold) increase” value in the series with Smn protein was “* (maximum fold increase of ≤1.2)”. In addition, in series [1] (setting [2]), the EC (1.5-fold) lay in the range of 3 to 30 µM.

In the case of `Cc1cn2cc(-c3cc4ccc(N5C[C@H]6CCN(C)[C@H]6C5)cc4oc3=O)nc2c(C)n1` [Compound 704, 3-(6,8-dimethylimidazo[1,2-a]pyrazin-2-yl)-7-[(3aR,6aR)-1-methylhexahydropyrrolo[3,4-b]pyrrol-5(1H)-yl]-2H-chromen-2-one], the melting point was 255 to 263 °C. In the series with Smn protein, the EC1.5x (concentration giving 1.5-fold Smn protein increase) was less than 300 nM; the “maximum fold (Fold) increase” value was “**** (fold increase between >1.5 and ≤1.65)”. Besides, the EC (1.5-fold) in series [1] (setting [2]) is less than 0.1 µM.

As for `C[C@@H]1CN(c2ccc3cc(-c4cc5ccccc5s4)c(=O)oc3c2)C[C@H](C)N1` [Compound 408, 3-(1-benzothiophen-2-yl)-7-[(3R,5S)-3,5-dimethylpiperazin-1-yl]-2H-chromen-2-one], the melting point lay in the range of 271 to 273 °C. Further, in the series on Smn protein, the “maximum fold (Fold) increase” value was “* (maximum fold increase of ≤1.2)”. Moreover, the EC (1.5-fold) in series [1] (setting [2]) was 0.3 to 1 µM.
